According to PubChem BioAssay AID602435 (Southern Research Specialized Biocontainment Screening …, 2012):
“And” between values parts separate entries of the source, which are not always exact repeats. Identical values can stand only once. Inconclusive results are not listed. The source made the active and inactive calls. The rule behind the calls is not given here.

Key:
[1] = tested on: Mycobacterium tuberculosis H37Rv growth, 7H9 medium; test: M. tuberculosis growth inhibition, dose response, 7H9 medium, purified and synthesized samples, set 9 (AID 602435); conditions: for IC50: measured here: IC50 growth inhibition replicates
[2] = as above; conditions: Mycobacterium tuberculosis H37Rv growth, 7H9 medium

Row | SMILES | IC90 [1] [µM] | IC50 [1] | growth inhibition ([2]; at 100 µM (top of the series)) | growth inhibition ([2]; at 50 µM (top of the series))
1 | O=C(c1ccc(CNc2c(N3CCOCC3)c(=O)c2=O)cc1)N1CCC(c2ccccc2)CC1 | 16 | 3.43 µM | – | –
2 | Cc1cccc(N2CCN(C(=O)c3ccc(CNc4c(N5CCC(C)CC5)c(=O)c4=O)cc3)CC2C)c1 (stereo not given) | 41.3 | 26.9 µM | – | –
3 | O=C(C1CCC(CNc2c(N3CCCCC3)c(=O)c2=O)CC1)N1CCCCC1 (stereo not given) | – | 25.2 µM | – | –
4 | COC(=O)C(Cc1ccccc1)NC(=O)CSc1nc2ccccc2c(=O)[nH]1 (stereo not given) | – | – | 4.82% (inactive) | –
5 | O=C(NCCc1ccc(Cl)cc1)c1ccc(CNc2c(N3CCOCC3)c(=O)c2=O)cc1 | 19.1 | 10.5 µM and 12.5 µM | – | –
6 | O=C(NCc1ccc(C(=O)N2CCC(c3ccccc3)CC2)cc1)Nc1ccc(Cl)cc1 | 94 | 74.4 µM | – | –
7 | CCOC(=O)CSc1ncnc2c1cnn2-c1ccccc1 | 39.5 | 15.3 µM | – | –
8 | CC1CC(C)CN(C(=O)c2ccc(CNc3c(N4CCCC4)c(=O)c3=O)cc2)C1 (stereo not given) | – | 8.84 µM | – | –
9 | COCCNC(=O)CSc1nc2ccccc2c(=O)[nH]1 | – | – | -5.73% (inactive) | –
10 | O=C(c1ccc(CNc2c(N3CCOCC3)c(=O)c2=O)cc1)N1CC=C(c2ccccc2)CC1 | 6.81 | 0.957 µM | – | –
11 | O=C(c1ccc(CNc2c(N3CCCC3)c(=O)c2=O)cc1)N1CC=C(c2ccccc2)CC1 | – | 3.22 µM and 2.96 µM | – | –
12 | COc1ccc(N2CCN(C(=O)c3ccc(CNC(=O)NCc4ccc(Cl)cc4)cc3)CC2)cc1 | – | – | 3.4% (inactive) | –
13 | O=C(CSc1nc2ccccc2c(=O)[nH]1)NC1CCCCC1 | < 0.29 | 0.195 µM | – | –
14 | Cc1cccc(N2CCN(C(=O)c3ccc(CNc4c(N5CCC(C)CC5)c(=O)c4=O)cc3)CC2)c1C | – | 42.1 µM | – | –
15 | O=C(c1ccc(CNc2c(N3CCOCC3)c(=O)c2=O)cc1)N1CCN(c2ccccc2)CC1 | – | 3.45 µM | – | –
16 | O=C(c1ccc(CNc2c(N3CCCC3)c(=O)c2=O)cc1)N1CCN(c2ccccc2)CC1 | – | 62.3 µM | – | –
17 | CC1CCCN(C(=O)C2CCC(CNc3c(N4CCCCC4)c(=O)c3=O)CC2)C1 (stereo not given) | – | 26.2 µM | – | –
18 | CCOC(=O)CSc1ncnc2c1cnn2-c1ccc(C)cc1C | 3.65 | 2.42 µM | – | –
19 | CC(=O)c1ccc(NC(=O)c2ccc(CNc3c(N4CCOCC4)c(=O)c3=O)cc2)cc1 | – | 50 µM | – | –
20 | CC(C)CCNC(=O)CSc1nc2c(c(=O)[nH]1)CCCCC2 | – | 99.6 µM | – | –
21 | O=C(NCCc1ccc(Cl)cc1)C1CCC(CNc2c(N3CCCCC3)c(=O)c2=O)CC1 (stereo not given) | – | 37.1 µM | – | –

Row | SMILES | IC90 [1] [µM] | IC50 [1] | growth inhibition ([2]; at 100 µM (top of the series)) | growth inhibition ([2]; at 50 µM (top of the series))
22 | O=C(c1ccc(CNc2c(N3CCCC3)c(=O)c2=O)cc1)N1CCc2ccccc2C1 | – | 5.06 µM | – | –
23 | CC1CCCN(c2c(NCc3ccc(C(=O)N4CC=C(c5ccccc5)CC4)cc3)c(=O)c2=O)C1 (stereo not given) | 11.8 | 7.54 µM | – | –
24 | O=C(CSc1nc2c(c(=O)[nH]1)CN(Cc1ccccc1)CC2)NC1CCCCC1 | – | – | -0.3% (inactive) | –
25 | CC(C)CCNC(=O)CSc1nc2c(c(=O)[nH]1)CCCC2 | 6.12 | 4.43 µM | – | –
26 | CC(C)OC(=O)CSc1ncnc2c1cnn2-c1ccccc1 | – | 28.7 µM | – | –
27 | COc1ccc(N2CCN(C(=O)c3ccc(CNc4c(N5CCOCC5)c(=O)c4=O)cc3)CC2)cc1 | – | 6.35 µM and 6.09 µM | – | –
28 | O=C(CSc1nc2c(c(=O)[nH]1)CCC2)NC1CCCCC1 | 3.92 | 2.97 µM | – | –
29 | CCOc1ccc(NC(=O)c2ccc(CNc3c(N4CCCC4)c(=O)c3=O)cc2)cc1 | – | – | -10% (inactive) | –
30 | CC1CC(C)CN(C(=O)C2CCC(CNc3c(N4CCCCC4)c(=O)c3=O)CC2)C1 (stereo not given) | – | 13.7 µM and 29 µM | – | –
31 | O=C(CSc1nc2c(c(=O)[nH]1)CCCC2)NC1CCCCC1 | 3.12 | 1.97 µM | – | –
32 | CC1CCN(C(=O)c2ccc(CNc3c(N4CCCC4)c(=O)c3=O)cc2)CC1 | – | 8.48 µM | – | –
33 | O=C(CSc1nc2ccccc2c(=O)[nH]1)NC1CCOCC1 | 26 | 23.1 µM | – | –
34 | O=C(NCc1ccc(C(=O)N2CCC(c3ccccc3)CC2)cc1)NC1CCCCC1 | 88.7 | 69.1 µM | – | –
35 | CCOC(=O)N1CCC(Nc2c(Nc3cccc(CC)c3)c(=O)c2=O)CC1 | – | – | – | 3.52% (inactive)
36 | O=C(NCc1ccc(C(=O)N2CCN(c3ccccc3)CC2)cc1)NC1CCCCC1 | – | – | 2.95% (inactive) | –
37 | CCC(C)NC(=O)CSc1nc2ccccc2c(=O)[nH]1 (stereo not given) | 16.9 | 15.7 µM | – | –
38 | CC1CCCN(C(=O)c2ccc(CNc3c(N4CCCCC4)c(=O)c3=O)cc2)C1 (stereo not given) | – | 3.7 µM | – | –
39 | COC(=O)CSc1ncnc2c1cnn2-c1ccc(C)cc1C | 3.65 | 2.57 µM | – | –
40 | O=C(c1ccc(CNc2c(N3CCCC3)c(=O)c2=O)cc1)N1CCC(c2ccccc2)CC1 | – | 79.7 µM | – | –
41 | CC(C)CCNC(=O)CSc1nc2ccccc2c(=O)[nH]1 | 0.78 | 0.696 µM | – | –
42 | COc1ccc(N2CCN(C(=O)c3ccc(CNc4c(N5CCCC(C)C5)c(=O)c4=O)cc3)CC2)cc1 (stereo not given) | 46.9 | 28.1 µM | – | –
